This assay has as its system L1210 leukemia ip in BDF1 mice, survival T/C. The experiment in a line: NCI In Vivo Anticancer Drug Screen. Data for tumor model L1210 Leukemia (intraperitoneal) in B6D2F1 (BDF1) mice. The conditions noted are these: endpoint: mean survival time, higher = longer survival. In outline: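 In this screen, tumor-bearing mice given compound are compared to those given vehicle, and their survival values are reported as a treated-to-control quotient.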

Where [1] appears, read: dose: 50.0 mg/kg/injection, schedule: Q01DX009 (ip), vehicle: Klucel (hydroxypropylcellulose) (HPC).
[2] abbreviates: dose: 100.0 mg/kg/injection, schedule: Q01DX009 (ip), vehicle: Klucel (hydroxypropylcellulose) (HPC).
Setting [3] is: dose: 100.0 mg/kg/injection, schedule: Q04DX003 (ip), vehicle: Klucel (hydroxypropylcellulose) (HPC).
Setting [4] is: dose: 200.0 mg/kg/injection, schedule: Q04DX003 (ip), vehicle: Klucel (hydroxypropylcellulose) (HPC).
The mark [5] stands for this setting: dose: 25.0 mg/kg/injection, schedule: Q01DX009 (ip), vehicle: saline with Tween-80.
The mark [6] stands for this setting: dose: 50.0 mg/kg/injection, schedule: Q01DX009 (ip), vehicle: saline with Tween-80.
Where [7] appears, read: dose: 100.0 mg/kg/injection, schedule: Q01DX009 (ip), vehicle: saline with Tween-80.
[8] abbreviates: dose: 100.0 mg/kg/injection, schedule: Q04DX003 (ip), vehicle: saline with Tween-80.
[9] abbreviates: dose: 200.0 mg/kg/injection, schedule: Q01DX009 (ip), vehicle: Klucel (hydroxypropylcellulose) (HPC).
Setting [10] is: dose: 400.0 mg/kg/injection, schedule: Q01DX009 (ip), vehicle: Klucel (hydroxypropylcellulose) (HPC).
Setting [11] is: dose: 400.0 mg/kg/injection, schedule: Q04DX003 (ip), vehicle: Klucel (hydroxypropylcellulose) (HPC).
[12] abbreviates: dose: 100.0 mg/kg/injection, schedule: Q04DX003 (ip), vehicle: saline.
The mark [13] stands for this setting: dose: 200.0 mg/kg/injection, schedule: Q04DX003 (ip), vehicle: saline.
The mark [14] stands for this setting: dose: 400.0 mg/kg/injection, schedule: Q04DX003 (ip), vehicle: saline.
[15] abbreviates: dose: 100.0 mg/kg/injection, schedule: Q04DX002 (ip), vehicle: saline with Tween-80.
Where [16] appears, read: dose: 200.0 mg/kg/injection, schedule: Q04DX002 (ip), vehicle: saline with Tween-80.
Setting [17] is: dose: 400.0 mg/kg/injection, schedule: Q04DX002 (ip), vehicle: saline with Tween-80.
The mark [18] stands for this setting: dose: 200.0 mg/kg/injection, schedule: Q04DX003 (ip), vehicle: saline with Tween-80.
The mark [19] stands for this setting: dose: 400.0 mg/kg/injection, schedule: Q04DX003 (ip), vehicle: saline with Tween-80.
Setting [20] is: dose: 200.0 mg/kg/injection, schedule: Q01DX009 (ip), vehicle: saline with Tween-80.

SMILES strings stand for the structures. Values joined by “and” are separate entries in the source; they are usually repeats but may differ in a detail not shown here. Equal entries are not always repeated. Inconclusive results and toxic doses are left out.

As to `CP(c1ccccc1)c1ccccc1`, the T/C is 98 % of control under setting [1], 95 % of control under setting [2], 104 % of control under setting [3] and 114 % of control under setting [4].

For `CCCCCCCCCCCn1cnc2c(=S)nc[nH]c21`, the T/C is, setting by setting: (dose: 12.5 mg/kg/injection, schedule: Q01DX005 (ip), vehicle: other) 103 % of control; (dose: 25.0 mg/kg/injection, schedule: Q01DX005 (ip), vehicle: other) 97 % of control; (dose: 50.0 mg/kg/injection, schedule: Q01DX005 (ip), vehicle: other) 98 % of control; (dose: 100.0 mg/kg/injection, schedule: Q01DX005 (ip), vehicle: other) 98 % of control; (dose: 200.0 mg/kg/injection, schedule: Q01DX005 (ip), vehicle: other) 97 % of control.

For `Nc1cc(Cl)c2[nH]cnc2n1`, the T/C (dose: 33.0 mg/kg/injection, schedule: Q01DX009 (ip), vehicle: Klucel (hydroxypropylcellulose) (HPC)) is 179 % of control; the T/C under setting [1] was 151 % of control and 159 % of control; the T/C (dose: 75.0 mg/kg/injection, schedule: Q01DX009 (ip), vehicle: Klucel (hydroxypropylcellulose) (HPC)) is 161 % of control; the T/C (dose: 100.0 mg/kg/injection, schedule: Q01DX001 (ip), vehicle: Klucel (hydroxypropylcellulose) (HPC)) was 118 % of control; the T/C under setting [2] was 97 % of control; the T/C (dose: 133.0 mg/kg/injection, schedule: Q01DX001 (ip), vehicle: Klucel (hydroxypropylcellulose) (HPC)) was 119 % of control. Besides, the T/C was 121 % of control (dose: 200.0 mg/kg/injection, schedule: Q01DX001 (ip), vehicle: Klucel (hydroxypropylcellulose) (HPC)) and 122 % of control (dose: 300.0 mg/kg/injection, schedule: Q01DX001 (ip), vehicle: Klucel (hydroxypropylcellulose) (HPC)).

Take `Cc1ccc(S(=O)(=O)F)cc1C(=O)Nc1ccc(OCCCc2c(N)nc(N)nc2N)cc1`: the T/C (dose: 37.5 mg/kg/injection, schedule: Q01DX001 (ip), vehicle: Klucel (hydroxypropylcellulose) (HPC)) is 96 % of control; the T/C (dose: 75.0 mg/kg/injection, schedule: Q01DX001 (ip), vehicle: Klucel (hydroxypropylcellulose) (HPC)) is 94 % of control; the T/C (dose: 150.0 mg/kg/injection, schedule: Q01DX001 (ip), vehicle: Klucel (hydroxypropylcellulose) (HPC)) was 98 % of control.

Regarding `COc1cccn(C/C=C(\C)CCC=C(C)C)c1=O`, the T/C under setting [5] is 104 % of control; the T/C (dose: 25.0 mg/kg/injection, schedule: Q04DX003 (ip), vehicle: saline with Tween-80) was 99 % of control; the T/C under setting [6] was 94 % of control; the T/C (dose: 50.0 mg/kg/injection, schedule: Q04DX003 (ip), vehicle: saline with Tween-80) was 97 % of control; the T/C under setting [7] was 90 % of control; the T/C under setting [8] was 91 % of control.

For the compound `COc1ccc(OC)c(NC(=O)N(C)CCC#N)c1`, the T/C under setting [2] is 106 % of control, the T/C under setting [9] was 101 % of control and the T/C under setting [10] is 106 % of control.

`CC(=O)Nc1cc2c(cc1Cl)-c1ccccc1C2Br` (stereo unspecified): the T/C runs as follows: under setting [3], 96 % of control; under setting [4], 94 % of control; under setting [11], 96 % of control.

Regarding `Nc1cnccc1NCC(O)c1ccccc1` (stereo unspecified), the T/C was 95 % of control (dose: 100.0 mg/kg/injection, schedule: Q01DX001 (ip), vehicle: saline); 101 % of control (dose: 200.0 mg/kg/injection, schedule: Q01DX001 (ip), vehicle: saline); 86 % of control (dose: 400.0 mg/kg/injection, schedule: Q01DX001 (ip), vehicle: saline).

`N#Cc1ncc(-c2ccc(Cl)cc2)nc1Cl`: the T/C is, setting by setting: (dose: 100.0 mg/kg/injection, schedule: Q01DX009 (ip), vehicle: saline) 105 % of control; under setting [12], 91 % of control; (dose: 200.0 mg/kg/injection, schedule: Q01DX009 (ip), vehicle: saline) 113 % of control; under setting [13], 93 % of control; under setting [14], 95 % of control.

Consider `O=C(/C=C/c1ccccc1Cl)c1ccc(F)cc1`, for which the T/C was 94 % of control under setting [15], 94 % of control under setting [16] and 97 % of control under setting [17].

With `O=S(=O)(CC1CC2C=CC1C2)c1ccc(Br)cc1` (stereo unspecified), the T/C reads like this: under setting [8], 108 % of control; under setting [18], 101 % of control; under setting [19], 101 % of control.

Regarding `Cc1ccc(S(=O)(=O)On2cccc2C#N)cc1`, the T/C under setting [5] was 102 % of control; the T/C under setting [6] was 94 % of control and 96 % of control; the T/C under setting [7] was 98 % of control; the T/C under setting [20] was 97 % of control and 102 % of control.

Turning to `O=S(Cc1ncc2cnccn12)c1ccccc1` (stereo unspecified), the T/C is 110 % of control (dose: 50.0 mg/kg/injection, schedule: Q01DX005 (ip), vehicle: saline); 104 % of control (dose: 100.0 mg/kg/injection, schedule: Q01DX005 (ip), vehicle: saline); 101 % of control under setting [12]; 104 % of control (dose: 200.0 mg/kg/injection, schedule: Q01DX005 (ip), vehicle: saline); 105 % of control under setting [13]; 105 % of control (dose: 400.0 mg/kg/injection, schedule: Q01DX005 (ip), vehicle: saline). Further, the T/C under setting [14] was 105 % of control.

As for `CNC(=S)Nc1ccc(C)c(Cl)c1`, the T/C runs as follows: (dose: 100.0 mg/kg/injection, schedule: Q04DX002 (ip), vehicle: saline) 104 % of control; (dose: 200.0 mg/kg/injection, schedule: Q04DX002 (ip), vehicle: saline) 108 % of control; (dose: 400.0 mg/kg/injection, schedule: Q04DX002 (ip), vehicle: saline) 106 % of control.

With `c1ccc2c(c1)Cc1cc(NC3=NCCO3)ccc1-2`, the T/C is, setting by setting: (dose: 50.0 mg/kg/injection, schedule: Q04DX002 (ip), vehicle: saline with Tween-80) 93 % of control; under setting [15], 100 % of control; under setting [8], 101 % of control; under setting [16], 104 % of control; under setting [18], 89 % of control; under setting [17], 93 % of control. Further, the T/C under setting [19] was 87 % of control.

As for `O=c1c2ccccc2nc(-c2ccccc2)n1/N=C/c1ccccc1O`, the T/C is 103 % of control under setting [2], 103 % of control under setting [9] and 100 % of control under setting [10].

As to `O=C(Nc1cccc(Cl)c1)Oc1ccc(C2CCCCC2)cc1`, the T/C is, setting by setting: (dose: 100.0 mg/kg/injection, schedule: Q04DX002 (ip), vehicle: Klucel (hydroxypropylcellulose) (HPC)) 104 % of control; (dose: 200.0 mg/kg/injection, schedule: Q04DX002 (ip), vehicle: Klucel (hydroxypropylcellulose) (HPC)) 99 % of control; (dose: 400.0 mg/kg/injection, schedule: Q04DX002 (ip), vehicle: Klucel (hydroxypropylcellulose) (HPC)) 101 % of control.

With `CNC(=S)N/N=C(\C=N\NC(=S)NC)c1ccccc1`, the T/C (dose: 50.0 micrograms/kg/injection, schedule: Q01DX009 (ip), vehicle: carboxymethylcellulose (CMC)) was 88 % of control.

Turning to `NC(=O)NOCC1NC(=O)C(CONC(N)=O)NC1=O` (stereo unspecified), the T/C is 93 % of control under setting [2]; 104 % of control under setting [3]; 102 % of control under setting [9]; 89 % of control under setting [4]; 96 % of control under setting [10]; 95 % of control under setting [11].

For the compound `CCCCCCCCCCCCCC(=O)CCC`, the T/C is 106 % of control under setting [7]; 86 % of control under setting [8]; 100 % of control under setting [20]; 110 % of control under setting [18]; 104 % of control (dose: 400.0 mg/kg/injection, schedule: Q01DX009 (ip), vehicle: saline with Tween-80); 100 % of control under setting [19].

For the compound `C[N+](C)(C)c1ccc(N=C=S)cc1`, the T/C (dose: 12.5 mg/kg/injection, schedule: Q01DX009 (ip), vehicle: Klucel (hydroxypropylcellulose) (HPC)) was 94 % of control; the T/C (dose: 25.0 mg/kg/injection, schedule: Q01DX009 (ip), vehicle: Klucel (hydroxypropylcellulose) (HPC)) was 105 % of control; the T/C under setting [1] is 103 % of control.

For the compound `O=C(O)c1ccc(CCl)cc1`, the T/C reads like this: under setting [15], 108 % of control; under setting [16], 105 % of control.

Values taken from PubChem BioAssay AID248 (DTP/NCI, 2004).
